Columns and labels:
Asparagus Beetles Larvae [1] = test: Field trial, stomach poison test; format: in vivo
Procedure, shortened: (§1)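 Stomach-poison feeding test on leaves taken from the infested plant and treated by atomizer spraying at 10 psi or by dipping, then air-dried. Dishes hold five or ten insects, with one or two replicates per rate; reported values average mortality on a 0 to 9 rating scale, read at 24, 48 and 72 hours.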

Fall Webworm [2] = test: Field trial, stomach poison test; format: in vivo
Procedure, shortened: as §1

Asparagus Beetles Larvae [3] = test: Field trial, contact poison test; format: in vivo
Procedure, shortened: (§2)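 Contact spray, atomizer 10 psi, arm's length, several concentrations; infested plants in water bottles, stems wrapped in cellucotton, plants spaced apart. Scored 24, 48, 72 h; scale 0–9 by percent mortality.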

Corn Earworm = test: Field trial, contact poison test; format: in vivo
Procedure, shortened: as §2

Fall Webworm [4] = test: Field trial, contact poison test; format: in vivo
Procedure, shortened: as §2

Imported Cabbage Worm = test: Field trial, contact poison test; format: in vivo
Procedure, shortened: as §2

Cabbage Looper = test: Field trial (first summer), stomach; format: in vivo; conditions: 500 ppm
Variegated Cutworm = test: Field trial (first summer), stomach; format: in vivo; conditions: 500 ppm
Acute oral toxicity = conditions: in vivo, read-out: Est. LD50
Text: (§3) While the compounds of this invention resemble the organic phosphates in being toxic upon ingestion, they differ from the organic phosphates in having a low toxicity when applied to the skin. The following charts give the estimated acute oral and acute dermal toxicities of 2,6-bis(trifluoromethyl)-4-nitrobenzimidazole in several species of mammals.

Acute dermal toxicity = format: in vivo; conditions: rabbit
Text: as §3

O=[N+]([O-])c1cc(C(F)(F)F)cc2nc(C(F)(F)F)[nH]c12 [A, 2,6-bis(trifluoromethyl)-4-nitrobenzimidazole]
average mortality rating (Asparagus Beetles Larvae [1]; 5 ppm): 3 | average mortality rating (Asparagus Beetles Larvae [1]; 10 ppm): 7 | average mortality rating (Asparagus Beetles Larvae [1]; 25 ppm): 7 | average mortality rating (Fall Webworm [2]; 250 ppm): 9 (91-100 percent mortality) | average mortality rating (Fall Webworm [2]; 500 ppm): 0 (0-10 percent) | average mortality rating (Fall Webworm [2]; 750 ppm): 0 (0-10 percent) | average mortality rating (Fall Webworm [2]; 1000 ppm): 0 (0-10 percent) | average mortality rating (Asparagus Beetles Larvae [3]; 10 ppm): 8 | average mortality rating (Asparagus Beetles Larvae [3]; 25 ppm): 8 | average mortality rating (Asparagus Beetles Larvae [3]; 50 ppm): 9 (91-100 percent mortality) | average mortality rating (Corn Earworm; 62.5 ppm): 0 (0-10 percent) | average mortality rating (Corn Earworm; 125 ppm): 0 (0-10 percent) | average mortality rating (Corn Earworm; 250 ppm): 0 (0-10 percent) | average mortality rating (Corn Earworm; 500 ppm): 0 (0-10 percent) | average mortality rating (Corn Earworm; 750 ppm): 1 | average mortality rating (Fall Webworm [4]; 125 ppm): 3 | average mortality rating (Fall Webworm [4]; 250 ppm): 5 | average mortality rating (Fall Webworm [4]; 500 ppm): 3 | average mortality rating (Fall Webworm [4]; 750 ppm): 9 (91-100 percent mortality) | average mortality rating (Imported Cabbage Worm; 125 ppm): 3 | average mortality rating (Imported Cabbage Worm; 250 ppm): 4 | average mortality rating (Imported Cabbage Worm; 500 ppm): 3 | average mortality rating (Imported Cabbage Worm; 750 ppm): 7 | insect mortality rating (Cabbage Looper): 9 (91-100 percent mortality) | insect mortality rating (Variegated Cutworm): 5 | LD50 (Acute oral toxicity; guinea pig, male): 15 mg/kg | LD50 (Acute oral toxicity; mouse, female): 27 mg/kg | LD50 (Acute oral toxicity; rat, female): 19 to 22 mg/kg | LD50 (Acute oral toxicity; rat, male): 16 to 20 mg/kg | LD50 (Acute dermal toxicity; in vivo, topical or ocular, male, read-out: Est. LD50): > 500 mg/kg | Est. LD50 (Acute dermal toxicity; female): > 500 mg/kg
